Target: T1, JAK3 (recombinant human kinase domain; h-jak3(810-1124)) (Homo sapiens, UniProt P52333)
T1 construct: h-jak3(810- 1124)-sf9-c; made in house; host or cells: Sf9 insect cells
Test: Determination of IC50 of Janus Kinase (JAK) inhibition: JAK3, radioactive end-point assay with 33P-ATP
Format: biochemical
Conditions: JAK3 kinase domain; ATP 1.5 uM, peptide 50 uM, 20 minutes, room temperature, 10% DMSO; read-out: Ic50 h-jak3(810-1124)-sf9-c:no additive

T1 sequence (P52333 810-1124): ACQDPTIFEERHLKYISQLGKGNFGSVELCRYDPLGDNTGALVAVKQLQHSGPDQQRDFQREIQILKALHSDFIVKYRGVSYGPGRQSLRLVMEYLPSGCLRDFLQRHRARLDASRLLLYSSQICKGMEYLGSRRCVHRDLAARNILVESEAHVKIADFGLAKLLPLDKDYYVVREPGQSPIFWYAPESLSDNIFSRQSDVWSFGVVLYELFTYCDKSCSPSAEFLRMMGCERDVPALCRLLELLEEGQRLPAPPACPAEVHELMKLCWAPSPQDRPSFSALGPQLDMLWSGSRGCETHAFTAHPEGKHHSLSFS

IC50 [nM]	Structure (SMILES)
3.25	Cc1ccc(F)c(-n2cnc(-c3cnc4[nH]cc(C(=O)N[C@@H](C)C(C)(C)C)c4n3)c2)c1 [Example I-148, 2-[1-(2-Fluoro-5-methyl-phenyl)-1H-imidazol-4-yl]-5H-pyrrolo[2,3-b]pyrazine-7-carboxylic acid ((S)-1,2,2-trimethyl-propyl)-amide]
10	C[C@H](NC(=O)c1c[nH]c2ncc(-c3ccccn3)nc12)C(C)(C)C [Example I-72, 2-Pyridin-2-yl-5H-pyrrolo[2,3-b]pyrazine-7-carboxylic acid ((S)-1,2,2-trimethyl-propyl)-amide]
283	CC(=O)N1CCCC(CNC(=O)c2c[nH]c3ncc(C4CC4)nc23)C1 (stereo not shown) [Example I-136, 2-Cyclopropyl-5H-pyrrolo[2,3-b]pyrazine-7-carboxylic acid (1-acetyl-piperidin-3-ylmethyl)-amide]
132	CC(C)(C)[C@@H](CC#N)NC(=O)c1c[nH]c2ncc(C3CC3)nc12 [Example I-76, 2-Cyclopropyl-5H-pyrrolo[2,3-b]pyrazine-7-carboxylic acid ((R)-1-cyanomethyl-2,2-dimethyl-propyl)-amide]
0.11	C[C@H](NC(=O)c1c[nH]c2ncc(-c3ccc(C(=O)N4CC5(COC5)C4)s3)nc12)C(C)(C)C [Example I-217, 2-[5-(2-Oxa-6-aza-spiro[3.3]heptane-6-carbonyl)-thiophen-2-yl]-5H-pyrrolo[2,3-b]pyrazine-7-carboxylic acid ((S)-1,2,2-trimethyl-propyl)-amide]
3.9	O=C(NC(C1CC1)C1CC1)c1c[nH]c2ncc(C3CC3)nc12 [Example I-80, 2-Cyclopropyl-5H-pyrrolo[2,3-b]pyrazine-7-carboxylic acid dicyclopropyl-methyl-amide]
50	CC(C)NC(=O)c1c[nH]c2ncc(Oc3ccc4c(c3)[C@H](NC(=O)C3CC3)CC4)nc12 [Example I-284, 2-[(R)-3-(Cyclopropane-carbonyl-amino)-indan-5-yloxy]-5H-pyrrolo[2,3-b]pyrazine-7-carboxylic acid isopropylamide]
0.28	COCC(C)NC(=O)c1ccc(-c2cnc3[nH]cc(C(=O)N[C@@H](C)C(C)(C)C)c3n2)s1 (stereo partly drawn) [Example I-214, 2-[5-(2-Methoxy-1-methyl-ethylcarbamoyl)-thiophen-2-yl]-5H-pyrrolo[2,3-b]pyrazine-7-carboxylic acid ((S)-1,2,2-trimethyl-propyl)-amide]
192	CC(O)CC(C)(C)NC(=O)c1c[nH]c2ncc(C3CC3)nc12 (stereo not shown) [Example I-12, 2-Cyclopropyl-5H-pyrrolo[2,3-b]pyrazine-7-carboxylic acid (3-hydroxy-1,1-dimethyl-butyl)-amide]
1180	CC(C)NC(=O)c1c[nH]c2ncc(Oc3ccc4ccccc4c3)nc12 [Example I-242, 2-(Naphthalen-2-yloxy)-5H-pyrrolo[2,3-b]pyrazine-7-carboxylic acid isopropylamide]
180	CC(C)[C@H](NC(=O)c1c[nH]c2ncc(C3CC3)nc12)C(C)(C)O [Example I-24, 2-Cyclopropyl-5H-pyrrolo[2,3-b]pyrazine-7-carboxylic acid ((S)-2-hydroxy-1-isopropyl-2-methyl-propyl)-amide]
0.71	C[C@H](NC(=O)c1c[nH]c2ncc(-c3ccc(C(=O)NCC(C)(C)C)s3)nc12)C(C)(C)C [Example I-210, 2-[5-(2,2-Dimethyl-propylcarbamoyl)-thiophen-2-yl]-5H-pyrrolo[2,3-b]pyrazine-7-carboxylic acid ((S)-1,2,2-trimethyl-propyl)-amide]
0.32	CCNC(=O)c1ccc(-c2cnc3[nH]cc(C(=O)N[C@@H](C)C(C)(C)C)c3n2)s1 [Example I-155, 2-(5-Ethylcarbamoyl-thiophen-2-yl)-5H-pyrrolo[2,3-b]pyrazine-7-carboxylic acid ((S)-1,2,2-trimethyl-propyl)-amide]
0.32	C[C@H](NC(=O)c1c[nH]c2ncc(-c3ccc(C(=O)N4CCC4)s3)nc12)C(C)(C)C [Example I-180, 2-[5-(Azetidine-1-carbonyl)-thiophen-2-yl]-5H-pyrrolo[2,3-b]pyrazine-7-carboxylic acid ((S)-1,2,2-trimethyl-propyl)-amide]
63.8	CC(C)[C@H](C)NC(=O)c1c[nH]c2ncc(Oc3ccccc3)nc12 [Example I-122, 2-Phenoxy-5H-pyrrolo[2,3-b]pyrazine-7-carboxylic acid ((S)-1,2-dimethyl-propyl)-amide]
1030	CCNC(=O)c1c[nH]c2ncc(Oc3cccc(C)c3)nc12 [Example I-248, 2-m-Tolyloxy-5H-pyrrolo[2,3-b]pyrazine-7-carboxylic acid ethylamide]
682	C[C@@H](NC(=O)c1c[nH]c2ncc(Oc3ccccc3)nc12)C(C)(C)O [Example I-116, 2-Phenoxy-5H-pyrrolo[2,3-b]pyrazine-7-carboxylic acid ((R)-2-hydroxy-1,2-dimethyl-propyl)-amide]
30.5	C[C@H](NC(=O)c1c[nH]c2ncc(C3CC3)nc12)[C@](C)(O)C(F)(F)F [Example I-63, 2-Cyclopropyl-5H-pyrrolo[2,3-b]pyrazine-7-carboxylic acid ((1S,2S)-3,3,3-trifluoro-2-hydroxy-1,2-dimethyl-propyl)-amide]
61.3	O=C(NCC1CCCCC1)c1c[nH]c2ncc(C3CC3)nc12 [Example I-107, 2-Cyclopropyl-5H-pyrrolo[2,3-b]pyrazine-7-carboxylic acid cyclohexylmethyl-amide]
0.32	C[C@H](NC(=O)c1c[nH]c2ncc(-c3ccc(C(=O)N4CCC(C(=O)O)CC4)s3)nc12)C(C)(C)C [Example I-182, 1-{5-[7-((S)-1,2,2-Trimethyl-propylcarbamoyl)-5H-pyrrolo[2,3-b]pyrazin-2-yl]-thiophene-2-carbonyl}-piperidine-4-carboxylic acid]
6.28	C[C@H](NC(=O)c1c[nH]c2ncc(-c3ccc(C(F)(F)F)cc3)nc12)C(C)(C)C [Example I-143, 2-(4-Trifluoromethyl-phenyl)-5H-pyrrolo[2,3-b]pyrazine-7-carboxylic acid ((S)-1,2,2-trimethyl-propyl)-amide]
0.91	C[C@H](NC(=O)c1c[nH]c2ncc(-c3ccc(C(=O)NC4CCOCC4)s3)nc12)C(C)(C)C#N [Example I-223, 2-[5-(Tetrahydro-pyran-4-ylcarbamoyl)-thiophen-2-yl]-5H-pyrrolo[2,3-b]pyrazine-7-carboxylic acid ((S)-2-cyano-1,2,2-trimethyl-ethyl)-amide]
4.51	C[C@H](NC(=O)c1c[nH]c2ncc(C3=CCCCC3)nc12)C(C)(C)O [Example I-7, 2-Cyclohex-1-enyl-5H-pyrrolo[2,3-b]pyrazine-7-carboxylic acid ((S)-2-hydroxy-1,2-dimethyl-propyl)-amide]
0.11	C[C@H](NC(=O)c1c[nH]c2ncc(-c3ccc(C(=O)N4CCS(=O)(=O)CC4)s3)nc12)C(C)(C)C [Example I-213, 2-[5-(1,1-Dioxo-1λ^6-thiomorpholine-4-carbonyl)-thiophen-2-yl]-5H-pyrrolo[2,3-b]pyrazine-7-carboxylic acid ((S)-1,2,2-trimethyl-propyl)-amide]
491	Cc1cccc(Oc2cnc3[nH]cc(C(=O)NC(C)C)c3n2)n1 [Example I-278, 2-(6-Methyl-pyridin-2-yloxy)-5H-pyrrolo[2,3-b]pyrazine-7-carboxylic acid isopropylamide]
